According to publication PMC13053910, “Covalent Protein Inhibitors via Tyrosine and Tryptophan Conjugation with Cyclic Imine Mannich Electrophiles” (Angewandte Chemie (International Ed. in English), 2026):
Non-standard residues stand in square brackets, D forms with d. Residues, ends and D or L forms follow the SMILES beside them. *: point of attachment. Benzoyl(4-OPh) = O=C(c1ccc(Oc2ccccc2)cc1)*; Lys(Et2) = CCN(CC)CCCC[C@H](N)C(=O)O; Gly(cPent) = N[C@H](C(=O)O)C1CCCC1

Columns and labels:
[1] = tested on: HOXA9 gene expression in THP1 cells; assay: qRT-PCR analysis of HOXA9 gene expression in THP1 cells; type: cell-based, Human; conditions: 48 h
Experimental: Figure 7 Cellular activity of covalent, cyclic imine inhibitors to CBX8. a) qRT‐PCR analysis of HOXA9 gene expression in THP1 cells after 48 h of compound treatment at the indicated dose. N = 3. Error bars represent SD. Statistical significance was calculated using Student's t‐test. ** = p < 0.01, **** = p < 0.0001, b) qRT‐PCR analysis of HOXA9 gene expression in THP1 cells treated with increasing doses of compound for 48 h. N = 3. Error bars represent SD.
Figure S24. Cellular activity of covalent, cyclic imine inhibitors to CBX8. qRT-PCR analysis of HOXA9 gene expression in THP1 cells after 48 h of compound treatment at the indicated dose. N = 3. Error bars represent s.d. Statistical significance determined by Student’s T test. * = p <0.05, ** = p < 0.01, *** = p < 0.001, **** = p < 0.0001.
2.4 Cell Culture Cell line, Media and Culture Conditions HEK293T cells were cultured in Dubecco’s Modified Essential Media (DMEM), 10% fetal bovine serum (FBS, JR Scientific), 1% glutagro (Corning), 1% penicillin/streptomycin (Corning), 1% sodium pyruvate (Corning). Human THP1 cells were cultured in RPMI (Gibco), 10% FBS (J R Scientific), 1% Sodium pyruvate (Invitrogen), 1% Pen/Strep (Invitrogen), 1% Glutamax (Thermo Scientific), 0.1% 2-mercaptoethanol.
Cells were harvested after 48 h for RNA extraction. […] SYBR Green Mastermix (Thermo Scientific) was used for quantitative PCR. […]

[2] = biological target: CBX8 ChD; set-up: method as in PMID 31755685, PMID 29309209; conditions: prior work ref 47, 48; cited from earlier work
[3] = Reaction of cyclic imine Mannich or sulfur fluoride electrophiles with Ac-Tyr-NHMe (HPLC, LC/MS); type: physicochemical; conditions: PBS pH 7, 37 °C
Experimental: To identify an appropriate warhead, we synthesized or purchased a collection of cyclic imines and incubated them with N‐acetyl‐L‐tyrosine methylamide (Ac‐Tyr‐NHMe) in PBS pH 7 at 37 °C (Table 1). The reactivity was quantified by UV integration on HPLC with LC/MS confirmation of product identity (Figure S1). […] The hydrolysis kinetics of imine 2 were characterized at pD 6 and 7.5 by NMR (Figure S3). […] The Mannich reaction mechanism involves a charged iminium intermediate, and the reaction is frequently catalyzed by Bronsted acids.^[ [36], [37] ^]
Figure 2 Second‐order rate constants for select cyclic imines and a sulfonyl fluoride with aromatic nucleophiles. Reactions were conducted under pseudo‐first‐order conditions with an excess of one reactant, as indicated. The reduction in the concentration of the limiting reactant was measured at various time points by HPLC analysis.
Figure S2: Second order rate constant determination. Reaction of (A) imine 1 (5 mM) with N-Ac-Tyr-NHMe (100 mM) at 37 °C or (B) at R.T. (C) imine 2 (5 mM) with N-Ac-Tyr-NHMe (100 mM) at 37 °C (D) imine 1 (5 mM) with indole-3-butyrate (100 mM) at 37 °C (E) imine 1 (10 mM) with 1 mM 1H-pyrrole-1-propionate (F) iminium 5 (5 mM) with N-Ac-Tyr-NHMe (100 mM) at 37 °C (G) imine 4 (5 mM) with N-Ac-Tyr-NHMe (100 mM) at 37 °C. (H) imine 11 (5 mM) with N-Ac-Tyr-NHMe (100 mM) at 37 °C. (I) imine 13 (5 mM) with N-Ac-Tyr-NHMe (100 mM) at 37 °C.
5.1 General procedure for determination of second order rate constants N-acetyl-l-tyrosine methyl amide (Ac-Tyr-NHMe) (100 mM) was incubated with 5 mM imine 1 in PBS (pH 7) at 37 °C or R.T..

[4] = pH 7 and 37 °C ref 39; cited from earlier work

SMILES	IC50 [1]	Kd [2]	reactivity (t1/2) ([3]; electrophile 5 mM, N‐acetyl‐l‐tyrosine methyl amide 100 mM)	second‐order rate constant k2 with N‐Ac‐Tyr‐NHMe ([3]; pseudo‐first‐order conditions)	hydrolysis half‐life [4]
CC[C@H](C)[C@H](NC(=O)[C@@H](NC(=O)c1ccc(Oc2ccccc2)cc1)C1CCCC1)C(=O)N[C@@H](CCCCN(CC)CC)C(=O)N[C@@H](CO)C(N)=O [SW2_110A, reference compound] ({Benzoyl(4-OPh)}-[Gly(cPent)]I[Lys(Et2)]S-NH2)	> 22000 nM	800 nM			
NCCc1ccc(S(=O)(=O)F)cc1 [compound 13, 4‐(2‐aminoethyl)‐benzenesulfonyl fluoride, reference compound]			0.28 ± 0.02 h	0.0069 M⁻¹ s⁻¹	6 h
